These results are taken from patent US10544143B2, “4-azaindole compounds” (BRISTOL-MYERS SQUIBB COMPANY, priority 2017, dated 2020).

Where two headings read alike, the source gives them in different places.

Test [1] has as its target human TLR8 (Homo sapiens (Human), UniProt Q9NR97). Put plainly: TLR8 inhibition reporter assay (HEK-Blue SEAP).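 Note: SEAP driven by IFN-β minimal promoter carrying NF-κB and AP-1 sites, compounds dosed 0.05 nM to 50 µM for 22 h, inhibition scaled between agonist-plus-DMSO and reference-inhibitor wells.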
The target in test [2] is human TLR7 (Homo sapiens (Human), UniProt Q9NYK1). Put plainly: TLR7 inhibition reporter assay (HEK-Blue SEAP). The class given is cell-based.
Sequence of human TLR7 (Q9NYK1 27-1049): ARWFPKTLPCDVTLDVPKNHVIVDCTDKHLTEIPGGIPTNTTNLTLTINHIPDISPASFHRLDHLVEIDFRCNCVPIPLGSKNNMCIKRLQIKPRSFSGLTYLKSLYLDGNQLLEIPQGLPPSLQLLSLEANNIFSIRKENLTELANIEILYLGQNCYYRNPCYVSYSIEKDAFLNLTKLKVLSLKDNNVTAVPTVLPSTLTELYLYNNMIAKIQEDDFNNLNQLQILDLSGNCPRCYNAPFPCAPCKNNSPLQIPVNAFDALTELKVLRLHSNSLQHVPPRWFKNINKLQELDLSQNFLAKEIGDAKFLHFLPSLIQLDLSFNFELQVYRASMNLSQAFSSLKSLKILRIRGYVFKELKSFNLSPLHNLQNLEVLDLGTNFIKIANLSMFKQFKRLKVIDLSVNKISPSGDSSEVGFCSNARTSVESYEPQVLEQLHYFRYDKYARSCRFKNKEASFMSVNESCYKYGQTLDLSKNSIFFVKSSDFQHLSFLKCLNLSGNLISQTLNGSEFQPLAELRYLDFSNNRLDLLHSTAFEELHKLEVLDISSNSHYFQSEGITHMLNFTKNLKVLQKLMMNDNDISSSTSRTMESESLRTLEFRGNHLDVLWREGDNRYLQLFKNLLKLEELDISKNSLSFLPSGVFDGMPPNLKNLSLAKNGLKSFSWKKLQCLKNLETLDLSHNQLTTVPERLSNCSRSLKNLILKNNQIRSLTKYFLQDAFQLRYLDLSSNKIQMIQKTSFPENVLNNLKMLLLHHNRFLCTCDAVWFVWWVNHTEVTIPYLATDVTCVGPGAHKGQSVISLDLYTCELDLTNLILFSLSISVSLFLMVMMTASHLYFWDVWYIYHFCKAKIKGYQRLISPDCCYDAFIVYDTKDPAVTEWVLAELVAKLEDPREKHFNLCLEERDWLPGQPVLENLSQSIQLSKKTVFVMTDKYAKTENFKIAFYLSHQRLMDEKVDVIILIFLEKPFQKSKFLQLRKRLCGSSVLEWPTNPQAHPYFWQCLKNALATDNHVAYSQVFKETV
Test [3] addresses human TLR9 (Homo sapiens (Human), UniProt Q9NR96). Put plainly: TLR9 inhibition reporter assay (HEK-Blue SEAP).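 Note: SEAP driven by an IFN-β minimal promoter with NF-κB and AP-1 sites, read after 22 h, compounds dosed 0.05 nM–50 µM, inhibition scaled between agonist plus DMSO and reference-inhibitor wells.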
Where [4] appears, read: read-out: TLR8 IC50, HEK-Blue cells overexpressing human TLR8, SEAP reporter, R848 15.9 μM.
[5] abbreviates: HEK-Blue cells overexpressing human TLR7, SEAP reporter, gardiquimod 7.5 μM.
Where [6] appears, read: read-out: TLR9 IC50, HEK-Blue cells overexpressing human TLR9, SEAP reporter, ODN2006 5 nM.
Setting [7] is: TLR8 IC50, HEK-Blue cells overexpressing human TLR8, R848 15.9 μM stimulation, SEAP reporter.
Setting [8] is: HEK-Blue cells overexpressing human TLR7, gardiquimod 7.5 μM stimulation, SEAP reporter.
Where [9] appears, read: TLR9 IC50, HEK-Blue cells overexpressing human TLR9, ODN2006 5 nM stimulation, SEAP reporter.
Where [10] appears, read: read-out: TLR8 IC50, HEK-Blue cells overexpressing human TLR8, R848 15.9 μM stimulation, SEAP reporter.
[11] abbreviates: read-out: TLR9 IC50, HEK-Blue cells overexpressing human TLR9, ODN2006 5 nM stimulation, SEAP reporter.
Setting [12] is: TLR8 IC50, HEK-Blue human TLR8 cells, R848 15.9 μM.
The mark [13] stands for this setting: HEK-Blue human TLR7 cells, gardiquimod 7.5 μM.
[14] abbreviates: TLR9 IC50, HEK-Blue human TLR9 cells, ODN2006 5 nM.
[15] abbreviates: read-out: TLR8 IC50, HEK-Blue human TLR8 cells, R848 15.9 μM.
Where [16] appears, read: read-out: TLR9 IC50, HEK-Blue human TLR9 cells, ODN2006 5 nM.

Sequence of human TLR9 (Q9NR96 26-1032): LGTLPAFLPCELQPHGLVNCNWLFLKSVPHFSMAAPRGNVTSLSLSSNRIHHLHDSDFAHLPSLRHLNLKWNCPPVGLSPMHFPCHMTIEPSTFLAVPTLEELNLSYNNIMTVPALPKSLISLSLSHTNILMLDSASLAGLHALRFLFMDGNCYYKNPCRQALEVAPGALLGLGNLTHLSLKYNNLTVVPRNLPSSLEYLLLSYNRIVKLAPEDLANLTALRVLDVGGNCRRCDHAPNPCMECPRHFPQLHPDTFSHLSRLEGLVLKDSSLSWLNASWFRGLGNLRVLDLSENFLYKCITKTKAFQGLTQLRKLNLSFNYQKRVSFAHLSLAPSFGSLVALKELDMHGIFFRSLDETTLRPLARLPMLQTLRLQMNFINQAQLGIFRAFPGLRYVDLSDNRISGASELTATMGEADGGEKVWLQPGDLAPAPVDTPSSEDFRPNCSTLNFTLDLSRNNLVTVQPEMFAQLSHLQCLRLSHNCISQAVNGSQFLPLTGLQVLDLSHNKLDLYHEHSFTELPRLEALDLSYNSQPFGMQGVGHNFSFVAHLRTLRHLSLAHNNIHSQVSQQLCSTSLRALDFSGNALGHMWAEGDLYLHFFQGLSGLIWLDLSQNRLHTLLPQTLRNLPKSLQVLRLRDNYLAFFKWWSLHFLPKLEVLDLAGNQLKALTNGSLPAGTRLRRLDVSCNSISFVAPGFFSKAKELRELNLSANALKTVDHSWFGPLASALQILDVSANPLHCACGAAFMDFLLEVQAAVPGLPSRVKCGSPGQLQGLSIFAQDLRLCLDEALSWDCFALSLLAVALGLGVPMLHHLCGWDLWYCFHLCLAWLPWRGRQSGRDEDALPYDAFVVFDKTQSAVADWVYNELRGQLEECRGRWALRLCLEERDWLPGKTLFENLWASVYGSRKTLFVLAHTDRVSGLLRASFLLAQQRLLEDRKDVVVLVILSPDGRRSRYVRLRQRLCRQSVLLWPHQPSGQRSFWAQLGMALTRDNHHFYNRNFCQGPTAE
Sequence of human TLR8 (Q9NR97 27-1041): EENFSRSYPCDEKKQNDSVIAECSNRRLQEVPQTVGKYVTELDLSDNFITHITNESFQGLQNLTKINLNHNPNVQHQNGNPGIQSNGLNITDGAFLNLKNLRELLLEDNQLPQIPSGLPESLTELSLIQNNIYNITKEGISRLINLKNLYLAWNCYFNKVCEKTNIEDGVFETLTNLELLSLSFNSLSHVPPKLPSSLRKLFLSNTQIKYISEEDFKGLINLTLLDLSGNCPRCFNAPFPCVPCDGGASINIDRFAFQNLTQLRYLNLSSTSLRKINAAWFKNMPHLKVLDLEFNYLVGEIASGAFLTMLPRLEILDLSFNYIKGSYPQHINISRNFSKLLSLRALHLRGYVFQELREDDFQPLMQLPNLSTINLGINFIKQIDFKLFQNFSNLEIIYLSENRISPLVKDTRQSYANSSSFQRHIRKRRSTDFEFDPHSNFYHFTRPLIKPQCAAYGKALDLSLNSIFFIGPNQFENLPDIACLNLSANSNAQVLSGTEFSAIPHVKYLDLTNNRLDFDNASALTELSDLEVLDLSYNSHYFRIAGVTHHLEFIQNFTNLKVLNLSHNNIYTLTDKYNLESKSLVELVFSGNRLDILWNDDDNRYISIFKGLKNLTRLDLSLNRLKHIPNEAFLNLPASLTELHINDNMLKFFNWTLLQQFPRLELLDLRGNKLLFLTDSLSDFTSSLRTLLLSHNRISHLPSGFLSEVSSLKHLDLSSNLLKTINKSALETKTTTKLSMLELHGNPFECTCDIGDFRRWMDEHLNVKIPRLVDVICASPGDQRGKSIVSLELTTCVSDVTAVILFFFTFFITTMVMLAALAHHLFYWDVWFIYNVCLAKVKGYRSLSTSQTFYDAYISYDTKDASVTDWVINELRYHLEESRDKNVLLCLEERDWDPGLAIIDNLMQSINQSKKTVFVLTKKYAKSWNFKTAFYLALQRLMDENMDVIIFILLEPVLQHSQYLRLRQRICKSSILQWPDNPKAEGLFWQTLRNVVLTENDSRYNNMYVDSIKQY

Consider “4-((3-isopropyl-2-(8-methoxy-[1,2,4]triazolo[1,5-a]pyridin-6-yl)-1H-pyrrolo[3,2-b]pyridin-5-yl)oxy)-N,N-dipropylcyclohexan-1-amine [Example 605]”, for which the IC50 is 0.017 µM in test [1] (setting [4]), 0.013 µM in test [2] (setting [5]) and 4.24 µM in test [3] (setting [6]).

In the case of `COc1cc(-c2[nH]c3ccc(C4CCC(N)C4)nc3c2C(C)C)cn2ncnc12` (racemic) [Example 7, 3-(3-isopropyl-2-(8-methoxy-[1,2,4]triazolo[1,5-a]pyridin-6-yl)-1H-pyrrolo[3,2-b]pyridin-5-yl)cyclopentan-1-amine], the concentration for half-maximal inhibition (IC50) in test [1] (setting [7]) stood at 0.052 µM; in test [2] (setting [8]), 0.0044 µM; in test [3] (setting [9]), 8.12 µM.

In the case of `COc1cc(-c2[nH]c3ccc(C4CCC(N)C4)nc3c2C(C)C)cn2ncnc12` (racemic) [Example 9, 3-(3-isopropyl-2-(8-methoxy-[1,2,4]triazolo[1,5-a]pyridin-6-yl)-1H-pyrrolo[3,2-b]pyridin-5-yl)cyclopentan-1-amine], the half-inhibitory concentration (IC50) in test [1] (setting [7]) is 0.0082 µM; in test [2] (setting [8]) it was 0.0017 µM; in test [3] (setting [9]), 2.25 µM.

As to `Cc1c(-c2[nH]c3ccc(N4CCC(NC5COC5)C4)nc3c2C(C)C)cn2ncnc2c1C` (racemic) [Example 164, 1-(2-(7,8-dimethyl-[1,2,4]triazolo[1,5-a]pyridin-6-yl)-3-isopropyl-1H-pyrrolo[3,2-b]pyridin-5-yl)-N-(oxetan-3-yl)pyrrolidin-3-amine], the IC50 worked out at 0.002 µM in test [1] (setting [10]), 0.033 µM in test [2] (setting [8]) and 19.8 µM in test [3] (setting [11]).

For the compound `COc1cc(-c2[nH]c3ccc(C4CCC(N)C4)nc3c2C(C)C)cn2ncnc12` (single isomer, unassigned) [Example 8, 3-(3-isopropyl-2-(8-methoxy-[1,2,4]triazolo[1,5-a]pyridin-6-yl)-1H-pyrrolo[3,2-b]pyridin-5-yl)cyclopentan-1-amine], the IC50 in test [1] (setting [7]) came to 0.021 µM; in test [2] (setting [8]), 0.0047 µM; in test [3] (setting [9]), 8.55 µM.

In the case of `CNC1CCC(c2ccc3[nH]c(-c4cn5ncnc5c(C)c4C)c(C(C)C)c3n2)CC1` (single isomer, unassigned) [Example 367, 4-(2-(7,8-dimethyl-[1,2,4]triazolo[1,5-a]pyridin-6-yl)-3-isopropyl-1H-pyrrolo[3,2-b]pyridin-5-yl)-N-methylcyclohexanamine], the IC50 in test [1] (setting [10]) came to 0.0035 µM; in test [2] (setting [8]) it was 0.0015 µM; in test [3] (setting [11]), 0.838 µM.

`CNC1CCC(c2ccc3[nH]c(-c4cn5ncnc5c(C)c4C)c(C(C)C)c3n2)CC1` (single isomer, unassigned) [Example 369, 4-(2-(7,8-dimethyl-[1,2,4]triazolo[1,5-a]pyridin-6-yl)-3-isopropyl-1H-pyrrolo[3,2-b]pyridin-5-yl)-N-methylcyclohexanamine]: the IC50 amounted to 0.0013 µM in test [1] (setting [10]), 0.00046 µM in test [2] (setting [8]) and 0.402 µM in test [3] (setting [11]).

Consider `Cc1c(-c2[nH]c3ccc(C4CCC(N(C)C5COC5)CC4)nc3c2C(C)C)cn2ncnc2c1C` (single isomer, unassigned) [Example 424, N-(4-(2-(7,8-dimethyl-[1,2,4]triazolo[1,5-a]pyridin-6-yl)-3-isopropyl-1H-pyrrolo[3,2-b]pyridin-5-yl)cyclohexyl)-N-methyloxetan-3-amine], for which the IC50 in test [1] (setting [4]) is 0.00074 µM; in test [2] (setting [5]), 0.00089 µM; in test [3] (setting [6]), 1.53 µM.

Turning to `Cc1c(-c2[nH]c3ccc(C4CCC(N(C)C5COC5)CC4)nc3c2C(C)C)cn2ncnc2c1C` (single isomer, unassigned) [Example 430, N-(4-(2-(7,8-dimethyl-[1,2,4]triazolo[1,5-a]pyridin-6-yl)-3-isopropyl-1H-pyrrolo[3,2-b]pyridin-5-yl)cyclohexyl)-N-methyloxetan-3-amine], the IC50 in test [1] (setting [4]) amounted to 0.014 µM; in test [2] (setting [5]) it was 0.013 µM; in test [3] (setting [6]), 15.1 µM.

`[2H]C([2H])([2H])N(CC(=O)N1CCN(c2ccc3[nH]c(-c4cn5ncnc5c(C)c4C)c(C(C)C)c3n2)CC1)C([2H])([2H])[2H]` (single isomer, unassigned) [Example 831]: the IC50 in test [1] (setting [12]) came out at 0.0023 µM; in test [2] (setting [13]) it was 0.0015 µM; in test [3] (setting [14]), 8.55 µM.

Take `[2H]C1([2H])N(C(=O)CN(C)C)C([2H])([2H])C([2H])([2H])N(c2ccc3[nH]c(-c4cn5ncnc5c(C)c4C)c(C(C)C)c3n2)C1([2H])[2H]` (single isomer, unassigned) [Example 858]: the IC50 worked out at 0.0013 µM in test [1] (setting [12]), 0.0011 µM in test [2] (setting [13]) and 7.13 µM in test [3] (setting [14]).

`[2H]C([2H])([2H])N(CC(=O)N1C([2H])([2H])C([2H])([2H])N(c2ccc3[nH]c(-c4cn5ncnc5c(C)c4C)c(C(C)C)c3n2)C([2H])([2H])C1([2H])[2H])C([2H])([2H])[2H]` (single isomer, unassigned) [Example 859]: the IC50 was found to be 0.0015 µM in test [1] (setting [12]), 0.00097 µM in test [2] (setting [13]) and 7.31 µM in test [3] (setting [14]).

As to `Cc1c(-c2[nH]c3ccc(N4CC(N5CCOCC5)C4)nc3c2C(C)C)cn2ncnc2c1C` [Example 39, 4-(1-(2-(7,8-dimethyl-[1,2,4]triazolo[1,5-a]pyridin-6-yl)-3-isopropyl-1H-pyrrolo[3,2-b]pyridin-5-yl)azetidin-3-yl)morpholine], the results for the IC50 in test [1] (setting [10]) and in test [2] (setting [8]) were 0.0048 µM and 0.04 µM, respectively.

As to `CC(C)c1c(-c2cn(C)c3ncccc23)[nH]c2ccc(N3CCC(N(CC#N)CC#N)CC3)nc12` [Example 52], the IC50 in test [1] (setting [10]) worked out at 0.02 µM; in test [2] (setting [8]) it was 0.0079 µM.

On to `COc1cc(-c2[nH]c3ccc(N4CCN(C5CCOC5)CC4)nc3c2C(C)C)cn2ncnc12` (stereo not drawn) [Example 103], for which the half-maximal inhibitory concentration (IC50) stood at 0.0026 µM in test [1] (setting [10]) and 0.0073 µM in test [2] (setting [8]).

As to `CC(C)c1c(-c2cc(CO)c3ncnn3c2)[nH]c2ccc(C3CCC(NCC(=O)N(C)C)CC3)nc12` (stereo not drawn) [Example 216], the IC50 in test [1] (setting [10]) came out at 0.018 µM; in test [3] (setting [11]) it was 0.416 µM.

Turning to `Cc1cnc(CNC2CCC(c3ccc4[nH]c(-c5cc(CO)c6ncnn6c5)c(C(C)C)c4n3)CC2)cn1` (stereo not drawn) [Example 217], the concentration for half-maximal inhibition (IC50) was 0.0086 µM in test [1] (setting [10]) and 0.522 µM in test [3] (setting [11]).

In the case of `CC(C)c1c(-c2cc(CO)c3ncnn3c2)[nH]c2ccc(C3CCC(NCC(=O)N(C)C)CC3)nc12` (stereo not drawn) [Example 222], the figures for the half-inhibitory concentration (IC50) in test [1] (setting [10]) and in test [3] (setting [11]) were 0.021 µM and 0.657 µM, respectively.

For `COc1cc(-c2[nH]c3ccc(C4CCC(NCC5(S(C)(=O)=O)CC5)CC4)nc3c2C(C)C)cn2ncnc12` (stereo not drawn) [Example 223], the IC50 was found to be 0.0014 µM in test [1] (setting [10]) and 0.485 µM in test [3] (setting [11]).

Regarding `COc1cc(-c2[nH]c3cc(C)c(C4CCC(NCC(C)(C)O)CC4)nc3c2C(C)C)cn2ncnc12` (stereo not drawn) [Example 321], the IC50 was found to be 0.003 µM in test [1] (setting [10]) and 1.04 µM in test [3] (setting [11]).

As for `COCCNC1CCC(c2nc3c(C(C)C)c(-c4cc(OC)c5ncnn5c4)[nH]c3cc2C)CC1` (stereo not drawn) [Example 335], the figures for the IC50 in test [1] (setting [10]) and in test [3] (setting [11]) were 0.004 µM and 1.93 µM, respectively.

For `Cc1c(-c2[nH]c3ccc(C4CCC(N(C)Cc5ncccn5)CC4)nc3c2C(C)C)cn2ncnc2c1C` (stereo not drawn) [Example 417], the IC50 worked out at 0.0071 µM in test [1] (setting [4]) and 9.5 µM in test [3] (setting [6]).

Turning to `Cc1c(-c2[nH]c3ccc(C4CCC(N(C)Cc5ncccn5)CC4)nc3c2C(C)C)cn2ncnc2c1C` (stereo not drawn) [Example 418], the IC50 in test [1] (setting [4]) was 0.0039 µM; in test [3] (setting [6]), 2.87 µM.

With `Cc1c(-c2[nH]c3ccc(C4CCC(N5CC6(COC6)C5)CC4)nc3c2C(C)C)cn2ncnc2c1C` (stereo not drawn) [Example 435], the values for the 50% inhibitory concentration (IC50) in test [1] (setting [4]) and in test [3] (setting [6]) were 0.0055 µM and 2.18 µM, respectively.

For the compound `Cc1c(-c2[nH]c3ccc(C4CCC(N5CC(C#N)C5)CC4)nc3c2C(C)C)cn2ncnc2c1C` (stereo not drawn) [Example 436], the figures for the IC50 in test [1] (setting [4]) and in test [3] (setting [6]) were 0.027 µM and 8.94 µM, respectively.

In the case of `Cc1c(-c2[nH]c3ccc(C4CCC(N5CC6(COC6)C5)CC4)nc3c2C(C)C)cn2ncnc2c1C` (stereo not drawn) [Example 437], the half-maximal inhibitory concentration (IC50) in test [1] (setting [4]) amounted to 0.011 µM; in test [3] (setting [6]), 3.75 µM.

Regarding `Cc1c(-c2[nH]c3ccc(C4CCC(N5CCN(C)C(=O)C5)CC4)nc3c2C(C)C)cn2ncnc2c1C` (stereo not drawn) [Example 443], the results for the IC50 in test [1] (setting [4]) and in test [2] (setting [5]) were 0.057 µM and 0.015 µM, respectively.

With `Cc1c(-c2[nH]c3ccc(C4CCC(N(CCO)CC(=O)N(C)C)CC4)nc3c2C(C)C)cn2ncnc2c1C` (stereo not drawn) [Example 468], the IC50 is 0.099 µM in test [1] (setting [4]) and 0.046 µM in test [2] (setting [5]).

Take `Cc1cc(-c2[nH]c3ccc(C4CCN(C5COC5)CC4)nc3c2C(C)C)cn(C)c1=O` [Example 528]: the figures for the IC50 in test [1] (setting [4]) and in test [3] (setting [6]) were 0.023 µM and 5.7 µM, respectively.

For the compound `Cc1c(-c2[nH]c3ccc(N4C[C@H]5C[C@@H](C4)N5C(=O)CN(C)C)nc3c2C(C)C)cn2ncnc2c1C` [Example 754], the IC50 in test [1] (setting [4]) came out at 0.0017 µM; in test [3] (setting [6]), 5.43 µM.

As for `Cc1c(-c2[nH]c3ccc(N4C[C@H]5C[C@@H](C4)N5C(C)C)nc3c2C(C)C)cn2ncnc2c1C` [Example 755], the results for the IC50 in test [1] (setting [4]) and in test [3] (setting [6]) were 0.0062 µM and 3.73 µM, respectively.

For the compound `Cc1c(-c2[nH]c3ccc(N4CCN(C(=O)CN5CCC(F)C5)CC4)nc3c2C(C)C)cn2ncnc2c1C` (stereo not drawn) [Example 917], the IC50 came to 0.0029 µM in test [1] (setting [15]) and 43.2 µM in test [3] (setting [16]).

Consider `Cc1c(-c2[nH]c3ccc(N4CCN(C(=O)CN5CC6(CCO6)C5)CC4)nc3c2C(C)C)cn2ncnc2c1C` [Example 918], for which the 50% inhibitory concentration (IC50) was found to be 0.0063 µM in test [1] (setting [15]) and 20.6 µM in test [3] (setting [16]).
